Measurements published in patent US20240166626A1, “Compounds and Methods for Preventing, Treating, or Ameliorating Airway Disease” (THOMAS JEFFERSON UNIVERSITY, priority 2021, published 2024).

System: mouse airway tissue
Experiment: Measurement of airway contractility in ex vivo mouse lung tissue slices
Method: FIGS. 4A-4F: DFPQ inhibits internalization of the β2AR and protects from agonist induced desensitization in cell and tissue models. FIG. 4A: Effect of DFPQ on agonist-promoted internalization of the β2AR. HEK 293 cells stably expressing FLAG-β2AR were pre-incubated with 0.1% DMSO or 10 μM DFPQ for 30 min and then stimulated with the indicated concentrations of ISO for up to 60 min. Cells were fixed and receptor surface expression was measured by ELISA. […] Cells were lysed and cAMP production was measured by ELISA. […] FIG. 4C: Mouse airway tissue were contracted with 1 μM methacholine for 5 min and then incubated overnight with 1 μM ISO±1 μM DFPQ. […] Airway contractility was measured by luminal area of bronchioles by microscopy at various times. […]
Cell culture GLOSENSOR™ cells (Promega) were maintained in Dulbecco's modified Eagle's medium (DMEM) containing 10% fetal bovine serum (FBS) and 200 μg/ml Hygromycin B. […]® ADRB2 cells (DiscoveRx) were maintained with the AssayComplete™ Cell Culture kit (DiscoveRx catalog #92-3107G). […] Cells were read every three minutes for 18 minutes on a PolarStar Optima plate reader (BMG) to establish peak signal. ISO was added to each well to a final concentration of 1 μM, and luminescence was determined in kinetic mode at room temperature (23-25° C.). […] Luminescence was determined at room temperature (23-25° C.) on a PolarStar Optima plate reader (BMG). […]

Fc1ccc(Nc2nc(NC3CCCCC3)c3ccccc3n2)cc1F [DFPQ, N^4-cyclohexyl-N^2-(3,4-difluorophenyl)quinazoline-2,4-diamine]
ISO mediated reversal of airway contraction on day 2 (overnight 1 μM ISO + 1 μM DFPQ, relative to control, FIG. 4C): largely preserved
protection from desensitization (up to 25 minutes post ISO challenge on day 2, FIG. 4D): significant protection from desensitization
